{"source": "patent US12030940B2", "about": "“Immunotherapeutic tumor treatment method” (Nektar Therapeutics, priority 2017, dated 2024)", "tested_on": "B16F10 mouse melanoma tumors", "test": "Immune cells in tumor microenvironment by flow cytometry, subcutaneous B16F10 melanoma mice", "format": "in vivo"}
{"substance": "aldesleukin", "values": [{"measurement": "activated natural killer (NK) cells", "setting": "5 and 7 days after treatment initiation", "value": "increased"}, {"measurement": "ratio of CD8/Treg in the tumor", "setting": "by day 7, single dose RSLAIL-2 or 5 doses aldesleukin", "value": 18}, {"measurement": "total and memory CD8 T cells as percentage of tumor-infiltrating lymphocytes", "setting": "relative to vehicle", "value": "transient"}, {"measurement": "percentage of Tregs (FoxP3+ subset of CD4) in tumor", "setting": "relative to vehicle, days 5, 7, 10", "value": "modest"}]}
